Source: patent publication US8912329B2 (priority 2009, dated 2014)

Biological target: EthR-VP16 (Mycobacterium bovis, UniProt Q7TVI1)
Test: cell-based
Design: species or system M. bovis
Conditions: 48 h, read-out: % EthR activity (w/o = 100%); ± std. dev. of the mean (n = 3)

Sequence of EthR-VP16 (Q7TVI1 whole entry, looked up): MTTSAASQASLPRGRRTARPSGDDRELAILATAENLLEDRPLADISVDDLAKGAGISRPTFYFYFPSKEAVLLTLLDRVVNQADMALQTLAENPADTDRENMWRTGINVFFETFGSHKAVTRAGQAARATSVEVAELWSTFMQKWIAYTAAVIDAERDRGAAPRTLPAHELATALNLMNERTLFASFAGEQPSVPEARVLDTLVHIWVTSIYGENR

Compound	remaining activity at 0.5 µM	remaining activity at 1.5 µM	remaining activity at 3 µM	remaining activity at 6 µM	remaining activity at 15 µM	remaining activity at 30 µM	remaining activity at 60 µM	remaining activity at 300 µM
CCCC(=O)N1CCN(Cc2ccccc2)CC1 [Example 1, 1-(4-Benzylpiperazin-1-yl)butan-1-one]	72.5 ± 1.65%	76.5 ± 17.5%	68.7 ± 2.79%	73.2 ± 1.19%	72.6 ± 6.82%	64.1 ± 14%	53.1 ± 7.78%	27.3 ± 5.27%
CCCC(=O)N1CCOC(c2ccccc2)C1 (stereo not drawn) [Example 3, 1-(2-Phenylmorpholino)butan-1-one]	85.5 ± 2.57%	96.82 ± 0.67%	84.4 ± 6.37%	90.1 ± 6.44%	98.4 ± 4.51%	86.5 ± 4.1%	81.9 ± 8.6%	40.2 ± 4.65%
CCCC(=O)N1CCC(c2ccccc2)C1 (stereo not drawn) [Example 13, 1-(3-Phenylpyrrolidin-1-yl)butan-1-one]	30.4 ± 3.98%	17.7 ± 2.01%	11 ± 2.88%	10.9 ± 1.45%	12.4 ± 0.99%	14.5 ± 7.8%	10.8 ± 1.34%	12 ± 1.27%
O=C(Cc1cccs1)N1CCOC(c2ccccc2)C1 (stereo not drawn) [Example 14, 1-(2-Phenylmorpholin-4-yl)-2-(thiophen-2-yl)ethan-1-one]	106 ± 19.8%	86.2 ± 1.36%	85.9 ± 6.26%	74.8 ± 1.22%	60.5 ± 1.32%	35.4 ± 5.3%	25.5 ± 3.82%	9.16 ± 1.37%
O=C(CCc1ccco1)N1CCN(Cc2ccccc2)CC1 [Example 18, 1-(4-Benzylpiperazin-1-yl)-3-(furan-2-yl)propan-1-one]	91.9 ± 3.57%	80.7 ± 8.89%	81.4 ± 15.9%	59.3 ± 1.2%	44.2 ± 2.35%	11.2 ± 1.68%	12.4 ± 1.85%	1.74 ± 0.26%
CC(C)CC(=O)N1CCOC(c2ccccc2)C1 (stereo not drawn) [Example 19, 3-Methyl-1-(2-phenylmorpholin-4-yl)butan-1-one]	95.6 ± 9.07%	102 ± 4.13%	95.9 ± 9.02%	96.4 ± 13.5%	76 ± 6.56%	35.2 ± 5.28%	33.5 ± 5.96%	27.6 ± 0.37%
CC(C)(C)CC(=O)N1CCOC(c2ccccc2)C1 (stereo not drawn) [Example 20, 3,3-Dimethyl-1-(2-phenylmorpholin-4-yl)butan-1-one]	96.6 ± 11.1%	90.9 ± 14%	88.2 ± 8.63%	89 ± 4.56%	75.5 ± 6.63%	43.7 ± 3.21%	33 ± 6.41%	35.5 ± 1.37%
O=C(CCc1ccccc1)N1CCOC(c2ccccc2)C1 (stereo not drawn) [Example 21, 3-Phenyl-1-(2-phenylmorpholin-4-yl)propan-1-one]	108 ± 7.36%	98.5 ± 16.4%	73.5 ± 7.58%	60.2 ± 8.98%	40.8 ± 4.81%	8.33 ± 5.61%	6.29 ± 1.05%	1.34 ± 1.58%
O=C(CCc1ccccc1)N1CCC1c1ccccc1 (stereo not drawn) [Example 22, 3-Phenyl-1-(2-phenylazetidin-1-yl)propan-1-one]	90 ± 15.2%	106 ± 10%	97.4 ± 5.01%	90.2 ± 8.48%	77.8 ± 4.33%	59.4 ± 4.5%	33.2 ± 2.46%	6.34 ± 0.89%
O=C(CCCc1ccccc1)N1CCC1c1ccccc1 (stereo not drawn) [Example 23, 4-Phenyl-1-(2-phenylazetidin-1-yl)butan-1-one]	96.3 ± 10%	102 ± 12.3%	101 ± 9.55%	90.1 ± 9.21%	86.8 ± 5.76%	81.5 ± 5.22%	49.4 ± 1.49%	6.18 ± 2.53%
O=C(CCc1ccccc1)N1CC(Cc2ccccc2)C1 [Example 25, 1-(3-Benzylazetidin-1-yl)-3-phenylpropan-1-one]	86.8 ± 9.98%	88.5 ± 8.12%	69.5 ± 4.27%	48 ± 5.86%	28.7 ± 3.22%	19.5 ± 0.89%	14.2 ± 3.23%	6.03 ± 2%
O=C(CCCc1ccccc1)N1CC(Cc2ccccc2)C1 [Example 27, 1-(3-Benzylazetidin-1-yl)-4-phenylbutan-1-on]	59.6 ± 2.49%	42.6 ± 1.49%	37.9 ± 5.47%	31.3 ± 3.58%	31.7 ± 1.36%	26.3 ± 9.65%	17.5 ± 4.51%	15.3 ± 2.79%
CCCCC(=O)N1CCN(Cc2ccccc2)CC1 [Example 28, 1-(4-Benzylpiperazin-1-yl)pentan-1-one]	97.1 ± 9.36%	81.5 ± 3.01%	59.4 ± 4.9%	46.2 ± 2.55%	38.3 ± 2.21%	18.5 ± 3.64%	11.7 ± 2.77%	10.2 ± 1.94%
CCCCCC(=O)N1CCN(Cc2ccccc2)CC1 [Example 29, 1-(4-Benzylpiperazin-1-yl)hexan-1-one]	85.4 ± 9.96%	56 ± 5.54%	36.5 ± 3.17%	26.5 ± 0.73%	16.9 ± 0.73%	16.7 ± 3.59%	10 ± 2.93%	12.9 ± 4.6%
CCCCC(=O)N1CCOC(c2ccccc2)C1 (stereo not drawn) [Example 30, 1-(2-Phenylmorpholin-4-yl)pentan-1-one]	112 ± 16.1%	111 ± 17.1%	101 ± 5.87%	90.5 ± 5.55%	69.2 ± 8.71%	43.3 ± 2.01%	26.9 ± 2.34%	14.9 ± 3%
CCCCCC(=O)N1CCOC(c2ccccc2)C1 (stereo not drawn) [Example 31, 1-(2-Phenylmorpholin-4-yl)hexan-1-one]	106 ± 17.5%	103 ± 16.4%	94.1 ± 15.9%	63.7 ± 5.26%	33.2 ± 1.27%	25 ± 4.22%	17.8 ± 4.01%	15 ± 2.11%
CCCCC(=O)N1CCC(c2ccccc2)C1 (stereo not drawn) [Example 32, 1-(3-Phenylpyrrolidin-1-yl)pentan-1-one]	12.5 ± 5.97%	10.7 ± 2.55%	10.4 ± 2.69%	9.96 ± 3.44%	5.65 ± 1.1%	8.77 ± 1.57%	8.89 ± 1.74%	1.56 ± 0.8%
CCCCCC(=O)N1CCC(c2ccccc2)C1 (stereo not drawn) [Example 33, 1-(3-Phenylpyrrolidin-1-yl)hexan-1-one]	11.4 ± 3.47%	14.9 ± 5.68%	5.8 ± 2.33%	3.83 ± 1.01%	4.58 ± 1.34%	5.01 ± 0.8%	5.24 ± 2.58%	2.78 ± 1.33%
